# Values of other authors in PubChem BioAssay AID1259409 (Chemical Carcinogenesis Research Information System (CCRIS), 2018).
# System: rodent chemically induced tumor inhibition, incidence and multiplicity
# Experiment: CCRIS tumor inhibitor studies
smiles,measurement,setting,value
CCCCC[Se]C#N,"tumour outcome (control, treated, inhibition, significance)","Carcinogen: 7,12-DIMETHYLBENZ[A]ANTHRACENE, 57-97-6, Dose [Inhibitor]: 0.1, 2 PPM (SELENIUM) IN DIET FOR 3 WK BEGINNING 2 WK PRIOR TO CARCINOGEN DOSE (STUDY DURATION: 25 WK), Route [Inhibitor]: ORAL, Species: RAT, Strain/Sex: SPRAGUE-DAWLEY/FEMALE, Target Tissue: Type of Lesion: MAMMARY GLAND: TUMOR, Dose [Carcinogen]: 10 MG ONCE, Promoter: NONE USED","25/30 (83%), 11/30 (37%), 55%, p<0.05"
N[C@@H](CS)C(=O)O,"tumour outcome (control, treated, inhibition, significance)","Carcinogen: 7,12-DIMETHYLBENZ[A]ANTHRACENE, 57-97-6, Dose [Inhibitor]: 0.03 NMOL/G DIET DAILY FOR 17 WK STARTING 1 WK PRIOR TO CARCINOGEN TREATMENT AND CONTINUING THROUGH THE END OF THE STUDY, Route [Inhibitor]: ORAL, Species: RAT, Strain/Sex: SPRAGUE-DAWLEY/FEMALE, Target Tissue: Type of Lesion: MAMMARY GLAND: TUMOR, Dose [Carcinogen]: 12 MG IN 1 ML OLIVE OIL ONCE, Promoter: NONE USED","59%, 61%, -3%, not significant"
same,"tumour outcome (control, treated, inhibition, significance)","Carcinogen: TRANS-5-AMINO-3-[2-(5-NITRO-2-FURYL)VINYL]-1,2,4-OXADIAZOLE;SQL8506, 28754-68-9, Carcinogen: TRANS-5-AMINO-3-[2-(5-NITRO-2-FURYL)VINYL]-1,2,4-OXADIAZOLE;SQL8506, 28754-68-9, Dose [Inhibitor]: 100 MG/KG 16 HR BEFORE THE 1ST CARCINOGEN DOSE FOLLOWED BY ADDITIONAL DOSES IMMEDIATELY BEFORE EACH DOSE OF CARCINOGEN (, Route [Inhibitor]: INTRAPERITONEAL, Species: MOUSE, Strain/Sex: CD-1/FEMALE, Target Tissue: Type of Lesion: HEMATOPOIETIC SYSTEM: MYELOID LEUKEMIA, Dose [Carcinogen]: 1 G/KG 2/D FOR 5 D EVERY 4 WK, Promoter: NONE USED","7/137 (5%), 1/32 (3%), 40%, not calculated"
same,"tumour outcome (control, treated, inhibition, significance)","Carcinogen: TRANS-5-AMINO-3-[2-(5-NITRO-2-FURYL)VINYL]-1,2,4-OXADIAZOLE;SQL8506, 28754-68-9, Carcinogen: TRANS-5-AMINO-3-[2-(5-NITRO-2-FURYL)VINYL]-1,2,4-OXADIAZOLE;SQL8506, 28754-68-9, Dose [Inhibitor]: 100 MG/KG 16 HR BEFORE THE 1ST CARCINOGEN DOSE FOLLOWED BY ADDITIONAL DOSES IMMEDIATELY BEFORE EACH DOSE OF CARCINOGEN (, Route [Inhibitor]: INTRAPERITONEAL, Species: MOUSE, Strain/Sex: CD-1/FEMALE, Target Tissue: Type of Lesion: LYMPHOID TISSUE: NONTHYMIC LYMPHOMA, Dose [Carcinogen]: 1 G/KG 2/D FOR 5 D EVERY 4 WK, Promoter: NONE USED","8/137 (6%), 1/32 (3%), 50%, not calculated"
same,"tumour outcome (control, treated, inhibition, significance)","Carcinogen: TRANS-5-AMINO-3-[2-(5-NITRO-2-FURYL)VINYL]-1,2,4-OXADIAZOLE;SQL8506, 28754-68-9, Carcinogen: TRANS-5-AMINO-3-[2-(5-NITRO-2-FURYL)VINYL]-1,2,4-OXADIAZOLE;SQL8506, 28754-68-9, Dose [Inhibitor]: 100 MG/KG 16 HR BEFORE THE 1ST CARCINOGEN DOSE FOLLOWED BY ADDITIONAL DOSES IMMEDIATELY BEFORE EACH DOSE OF CARCINOGEN (, Route [Inhibitor]: INTRAPERITONEAL, Species: MOUSE, Strain/Sex: CD-1/FEMALE, Target Tissue: Type of Lesion: LYMPHOID TISSUE: THYMIC LYMPHOMA, Dose [Carcinogen]: 1 G/KG 2/D FOR 5 D EVERY 4 WK, Promoter: NONE USED","22/137 (16%), 5/32 (16%), 0%, not calculated"
same,"tumour outcome (control, treated, inhibition, significance)","Carcinogen: TRANS-5-AMINO-3-[2-(5-NITRO-2-FURYL)VINYL]-1,2,4-OXADIAZOLE;SQL8506, 28754-68-9, Carcinogen: TRANS-5-AMINO-3-[2-(5-NITRO-2-FURYL)VINYL]-1,2,4-OXADIAZOLE;SQL8506, 28754-68-9, Dose [Inhibitor]: 100 MG/KG 16 HR BEFORE THE 1ST CARCINOGEN DOSE FOLLOWED BY ADDITIONAL DOSES IMMEDIATELY BEFORE EACH DOSE OF CARCINOGEN (, Route [Inhibitor]: INTRAPERITONEAL, Species: MOUSE, Strain/Sex: CD-1/FEMALE, Target Tissue: Type of Lesion: STOMACH: SQUAMOUS CARCINOMA, Dose [Carcinogen]: 1 G/KG 2/D FOR 5 D EVERY 4 WK, Promoter: NONE USED","60/137 (44%), 9/32 (28%), 36%, not calculated"
COc1ccc([Se])cc1,"tumour outcome (control, treated, inhibition, significance)","Carcinogen: AZOXYMETHANE, 25843-45-2, Dose [Inhibitor]: 0, 50 PPM IN HIGH-FAT DIET BEGINNING 2 WK PRIOR TO CARCINOGEN AND CONTINUING UNTIL 2 WK POST CARCINOGEN (STUDY DURATION:, Route [Inhibitor]: ORAL, Species: RAT, Strain/Sex: F344/FEMALE, Target Tissue: Type of Lesion: COLON: ADENOMA, ADENOCARCINOMA, Dose [Carcinogen]: 15 MG/KG IN NORMAL SALINE 1/WK FOR 3 WK, Promoter: NONE USED","27/29 (93%), 15/31 (48%), 48%, p<0.05"
same,"tumour outcome (control, treated, inhibition, significance)","Carcinogen: AZOXYMETHANE, 25843-45-2, Dose [Inhibitor]: 0, 50 PPM IN HIGH-FAT DIET BEGINNING 2 WK PRIOR TO CARCINOGEN AND CONTINUING UNTIL 2 WK POST CARCINOGEN (STUDY DURATION:, Route [Inhibitor]: ORAL, Species: RAT, Strain/Sex: F344/FEMALE, Target Tissue: Type of Lesion: KIDNEY: ADENOMA, ADENOCARCINOMA, NEPHROBLASTOMA, Dose [Carcinogen]: 15 MG/KG IN NORMAL SALINE 1/WK FOR 3 WK, Promoter: NONE USED","15/29 (52%), 8/31 (26%), 50%, p<.05"
same,"tumour outcome (control, treated, inhibition, significance)","Carcinogen: AZOXYMETHANE, 25843-45-2, Dose [Inhibitor]: 0, 50 PPM IN HIGH-FAT DIET BEGINNING 2 WK PRIOR TO CARCINOGEN AND CONTINUING UNTIL 2 WK POST CARCINOGEN (STUDY DURATION:, Route [Inhibitor]: ORAL, Species: RAT, Strain/Sex: F344/FEMALE, Target Tissue: Type of Lesion: SMALL INTESTINE: ADENOMA, ADENOCARCINOMA, Dose [Carcinogen]: 15 MG/KG IN NORMAL SALINE 1/WK FOR 3 WK, Promoter: NONE USED","3/29 (10%), 5/31 (16%), -60%, not significant"
C[S+](CC[C@H](N)C(=O)[O-])C[C@H]1O[C@@H](n2cnc3c(N)ncnc32)[C@H](O)[C@@H]1O (some centres not stated),"tumour outcome (control, treated, inhibition, significance)","Carcinogen: 1,2-DIMETHYLHYDRAZINE, 540-73-8, Dose [Inhibitor]: 0, 96 UMOL/KG 4/D FOR 32 WK BEGINNING 1 WK POST CARCINOGEN DOSE (STUDY DURATION: 33 WK), Route [Inhibitor]: INTRAMUSCULAR, Species: RAT, Strain/Sex: F344/MALE, Target Tissue: Type of Lesion: LIVER: HEPATOCELLULAR CARCINOMA, Dose [Carcinogen]: 100 MG/KG ONCE 18 HR AFTER RATS WERE SUBJECTED TO TWO-THIRDS HEPATECTOMY, Promoter: OROTIC ACID, 65-86-1","6/16 (38%), 1/24 (4%), 89%, not calculated"
same,"tumour outcome (control, treated, inhibition, significance)","Carcinogen: DIETHYLNITROSAMINE, 55-18-5, N-ACETYLAMINOFLUORENE, 53-96-3, Carcinogen: DIETHYLNITROSAMINE, 55-18-5, N-ACETYLAMINOFLUORENE, 53-96-3, Dose [Inhibitor]: 0, 64 UMOL/KG 6/D FOR 24 WK BEGINNING POST CARCINOGEN TREATMENT (STUDY DURATION: 28 MO), Route [Inhibitor]: INTRAMUSCULAR, Species: RAT, Strain/Sex: WISTAR/MALE, Target Tissue: Type of Lesion: LIVER: CARCINOMA, Dose [Carcinogen]: 150 MG/KG DEN ONCE THEN 2 WK LATER 0.03% AAF IN DIET FOR 2 WK WITH A PARTIAL HEPATECTOMY PERFORMED MIDWAY THROUGH CARCIN, Promoter: PHENOBARBITAL, 50-06-6","10/10 (100%), 3/11 (27%), 73%, p<0.025"
O=C1CC(C(=O)O)C(C(=O)O)O1 (configuration not stated),"tumour outcome (control, treated, inhibition, significance)","Carcinogen: BENZO[A]PYRENE, 50-32-8, Dose [Inhibitor]: 0.034 MMOL/G IN DIET FOR 5 WK BEGINNING 1 WK PRIOR TO FIRST CARCINOGEN DOSE AND CONTINUING FOR 3 D POST LAST CARCINOGEN, Route [Inhibitor]: ORAL, Species: MOUSE, Strain/Sex: ICR/HA/FEMALE, Target Tissue: Type of Lesion: FORESTOMACH: TUMOR, Dose [Carcinogen]: 1 MG IN 0.2 ML CORN OIL 2/WK FOR 4 WK STARTING, Promoter: NONE USED","100%, 100%, 0%, not significant"
